Laboratory results as given in patent publication US5945413A, “Aspartyl protease inhibitors” (Vertex Pharmaceuticals Incorporated, priority 1996, dated 1999).

Biological target: HIV-1 protease (Human immunodeficiency virus type 1 group M subtype B, UniProt P04585)
Test: inhibition constants against HIV-1 protease (method of Pennington et al.)
Format: biochemical
Settings: not given
Excerpt: We have measured the inhibition constants of each compound against HIV-1 protease using the method described essentially by M. W. Pennington et al., Peptides 1990, Gimet, E. and D. Andrew, Eds., Escom, Leiden, Netherlands (1990); and the method described essentially by Partaledis et al., J. Virol., 69, pp. 5228-35 (1995).
Using the method described by Pennington et al. (supra), we obtained inhibition constants for the following compounds of this invention: […]

| Ki [nM] | Compound |
| --- | --- |
| > 15000 | COc1ccc(S(=O)(=O)N(CC(O)CN2C(=O)[C@H](C)NC[C@@H]2Cc2ccccc2)CC2CCCC2)cc1 (stereo partly shown) [Compound 30] |
| 1400 | COc1ccc(S(=O)(=O)N(CC(O)CN2C(=O)COC[C@@H]2Cc2ccccc2)CC2CCCC2)cc1 (stereo partly shown) [Compound 28] |
| 950 | COC(=O)C1(C)NC[C@H](Cc2ccccc2)N(CC(O)CN(CC2CCCC2)S(=O)(=O)c2ccc(OC)cc2)C1=O (stereo partly shown) [Compound 34] |
| 1100 | COC(=O)C1NC[C@H](Cc2ccccc2)N(CC(O)CN(CC2CCCC2)S(=O)(=O)c2ccc(OC)cc2)C1=O (stereo partly shown) [Compound 33] |
| 390 | COc1ccc(S(=O)(=O)N(CC(O)CN2C(=O)C(C)(C)NC[C@@H]2Cc2ccccc2)CC2CCCC2)cc1 (stereo partly shown) [Compound 31] |
| 160 | COc1ccc(S(=O)(=O)N(CC(O)CN2C(=O)C3(CCCC3)NC[C@@H]2Cc2ccccc2)CC2CCCC2)cc1 (stereo partly shown) [Compound 32] |
| 20 | COc1ccc(S(=O)(=O)N(CC2CCCC2)C[C@@H](O)CN2C(=O)C3(CCCCC3)OC[C@@H]2Cc2ccccc2)cc1 [Compound 47] |

Continued, molecule first:

| Compound | Ki [nM] |
| --- | --- |
| COc1ccc(S(=O)(=O)N(CC(O)CN2C(=O)C(CC(COC(C)=O)OC(C)=O)C[C@@H]2Cc2ccccc2)CC2CCCC2)cc1 (stereo partly shown) [Compound 25] | 83 |
| COc1ccc(S(=O)(=O)N(CC(O)CN2C(=O)N(C)C[C@@H]2Cc2ccccc2)CC2CCCC2)cc1 (stereo partly shown) [Compound 13] | 225 |
| COc1ccc(S(=O)(=O)N(CC(O)CN2C(=O)C(CC(O)CO)C[C@@H]2Cc2ccccc2)CC2CCCC2)cc1 (stereo partly shown) [Compound 23] | 70 |
| CCC1C[C@H](Cc2ccccc2)N(CC(O)CN(CC2CCCC2)S(=O)(=O)c2ccc(OC)cc2)C1=O (stereo partly shown) [Compound 18] | 15 |
| C=CCN1C[C@H](Cc2ccccc2)N(C[C@H](O)CN(CC2CCCC2)S(=O)(=O)c2ccc(OC)cc2)C1=O [Compound 1] | 160 |
| COc1ccc(S(=O)(=O)N(CC2CCCC2)C[C@@H](O)CN2C(=O)C(Cc3ccccc3)C[C@@H]2Cc2ccccc2)cc1 (stereo partly shown) [Compound 20] | 1.5 |
| COc1ccc(S(=O)(=O)N(CC(O)CN2C(=O)CC(O)[C@@H]2Cc2ccccc2)CC2CCCC2)cc1 (stereo partly shown) [Compound 19] | 3000 |
| COc1ccc(S(=O)(=O)N(CC(O)CN2C(=O)CC[C@@H]2Cc2ccccc2)CC2CCCC2)cc1 (single isomer, unassigned) [Compound 15] | 550 |
| CC(C)CN1CC(Cc2ccccc2)N(CC(O)CN(CC2CCCC2)S(=O)(=O)c2cccc(N)c2)C1=O (stereo not shown) [Compound 12] | > 10000 |
| COc1ccc(S(=O)(=O)N(CC2CCCC2)C[C@@H](O)CN2C(=O)C(C)C[C@@H]2Cc2ccccc2)cc1 (stereo partly shown) [Compound 16] | 56 |
| COc1ccc(S(=O)(=O)N(CC(O)CN2C(=O)C(NC(C)=O)C[C@@H]2Cc2ccccc2)CC2CCCC2)cc1 (stereo partly shown) [Compound 22] | 600 |
| COc1ccc(S(=O)(=O)N(CC(O)CN2C(=O)C(C)(C)C[C@@H]2Cc2ccccc2)CC2CCCC2)cc1 (stereo partly shown) [Compound 17] | 115 |
| C=CCC1C[C@H](Cc2ccccc2)N(C[C@H](O)CN(CC2CCCC2)S(=O)(=O)c2ccc(OC)cc2)C1=O (stereo partly shown) [Compound 7] | 9 |
| COc1ccc(S(=O)(=O)N(CC(O)CN2[C@@H](Cc3ccccc3)CN(C)S2(=O)=O)CC2CCCC2)cc1 (stereo partly shown) [Compound 10] | > 10000 |
| COc1ccc(S(=O)(=O)N(CC(O)CN2C(=O)C(N)C[C@@H]2Cc2ccccc2)CC2CCCC2)cc1 (stereo partly shown) [Compound 21] | > 20000 |
| COc1ccc(S(=O)(=O)N(CC(O)CN2C(=O)N(Cc3ccccc3)C[C@@H]2Cc2ccccc2)CC2CCCC2)cc1 (stereo partly shown) [Compound 14] | 16 |
| COc1ccc(S(=O)(=O)N(CC(O)CN2C(=O)C(CC3COCO3)C[C@@H]2Cc2ccccc2)CC2CCCC2)cc1 (stereo partly shown) [Compound 24] | 350 |
| COc1ccc(S(=O)(=O)N(CC(O)CN2C(=O)CNC[C@@H]2Cc2ccccc2)CC2CCCC2)cc1 (stereo partly shown) [Compound 27] | 3000 |
| COc1ccc(S(=O)(=O)N(CC(O)CN2C(=O)C(CC3COC(=O)O3)C[C@@H]2Cc2ccccc2)CC2CCCC2)cc1 (stereo partly shown) [Compound 26] | 58 |
| COc1ccc(S(=O)(=O)N(CC(O)CN2[C@@H](Cc3ccccc3)CCS2(=O)=O)CC2CCCC2)cc1 (stereo partly shown) [Compound 11] | > 10000 |

Same assay, conditions: Inhibition constant measured at pH 6.0

| Ki [nM] | Compound |
| --- | --- |
| 250 | CC(C)(C)NC(=O)C1CSCN1C(=O)C(=O)CN1C(=O)C(Cc2ccccc2)CC1Cc1ccccc1 (stereo not shown) [Compound 109] |
| 8600 | CCCC1CC(Cc2ccccc2)N(CC(=O)C(=O)N2CSCC2C(=O)NC(C)(C)C)C1=O (stereo not shown) [Compound 112] |
| > 10000 | CC(C)(C)NC(=O)C1CSCN1C(=O)C(=O)CN1C(=O)C(C)(C)NC[C@@H]1Cc1ccccc1 (stereo partly shown) [Compound 105] |
| 250 | CC(C)(C)NC(=O)C1C[C@@H]2CCCC[C@@H]2CN1CC(O)CN1C(=O)N(Cc2ccccc2)C[C@@H]1Cc1ccccc1 (stereo partly shown) [Compound 76] |
| 1200 | CC(C)(C)NC(=O)C1CSCN1C(=O)C(O)CN1C(=O)C(Cc2ccccc2)CC1Cc1ccccc1 (stereo not shown) [Compound 102] |
| 560 | CC(C)(C)NC(=O)C1C[C@@H]2CCCC[C@@H]2CN1CC(O)CN1[C@@H](Cc2ccccc2)CN(Cc2ccccc2)S1(=O)=O (stereo partly shown) [Compound 77] |
| > 10000 | CC(C)(C)NC(=O)C1CSCN1C(=O)C(=O)CN1C(=O)CCC1Cc1ccccc1 (stereo not shown) [Compound 111] |
| 10 | C=CCN1CC(Cc2ccccc2)N(CC(O)CC(Cc2ccccc2)C(=O)NC2c3ccccc3CC2O)C1=O (stereo not shown) [Compound 78] |

Further lines, the molecule ahead of its results:

| Compound | Ki [nM] |
| --- | --- |
| C=CCN1C[C@H](Cc2ccccc2)N(CC(O)CN2CCN(Cc3cccnc3)CC2C(=O)NC(C)(C)C)C1=O (stereo partly shown) [Compound 3] | 1800 |
| C=CCN1C[C@H](Cc2ccccc2)N(CC(O)CN2C[C@H]3CCCC[C@H]3CC2C(=O)NC(C)(C)C)C1=O (stereo partly shown) [Compound 2] | 180 |
| C=CCC1C[C@H](Cc2ccccc2)N(CC(O)CN2CCN(Cc3cccnc3)CC2C(=O)NC(C)(C)C)C1=O (stereo partly shown) [Compound 9] | 90 |
| C=CCC1C[C@H](Cc2ccccc2)N(CC(O)CN2C[C@H]3CCCC[C@H]3CC2C(=O)NC(C)(C)C)C1=O (stereo partly shown) [Compound 8] | 5 |
| CC(C)(C)NC(=O)C1C[C@@H]2CCCC[C@@H]2CN1CC(O)CN1C(=O)C(C)(C)NC[C@@H]1Cc1ccccc1 (stereo partly shown) [Compound 5] | > 10000 |
